Read-outs that look alike come from different tables or passages of the source.
Experiments:
human CB2 receptor = human CB2 receptor (Homo sapiens (Human), UniProt P34972); assay: CB2 receptor binding assay ([3H]CP-55,940 displacement, HEK-293 membranes)
Protocol: The compounds were evaluated in CB1R and CB2R binding assays using membranes from HEK-293 cells transfected with cDNAs encoding the human recombinant CB1R (Bmax=[…] protein) and human recombinant CB2R (Bmax=[…] protein) (Perkin-Elmer). […] Compounds were tested following the procedure described by the cell membrane manufacturer. […] CB2R binding assays were carried out with two different buffers: incubation buffer (Tris-HCl, 50 mM; MgCl2, 5 mM; CaCl2 1 mM; BSA, 0.2% at pH 7.4) and washing buffer (Tris-HCl, 50 mM; NaCl 500 mM; BSA, 0.1% at pH 7.4). […] Assays were performed in duplicate and incubated for […] at 37° C. […] Data are analyzed and IC50 is calculated using GraphPad Prism 5 and the model “log(inhibitor) vs. response—Variable slope”. The binding affinity of the compounds is Determined by Using the Cheng and Prusoff Equation Ki=IC50/(1+[radioligand]/Kd).

human recombinant CB1R = human recombinant CB1R (Homo sapiens (Human), UniProt P21554); assay: CB1 receptor binding assay ([3H]CP-55,940 displacement, HEK-293 membranes); conditions: membranes of HEK-293 cells with human recombinant CB1R, [3H]CP-55,940, read-out: CB1 IC50
Protocol: The compounds were evaluated in CB1R and CB2R binding assays using membranes from HEK-293 cells transfected with cDNAs encoding the human recombinant CB1R (Bmax=[…] protein) and human recombinant CB2R (Bmax=[…] protein) (Perkin-Elmer). […]. Compounds were tested following the procedure described by the cell membrane manufacturer. […] CB2R binding assays were carried out with two different buffers: incubation buffer (Tris-HCl, 50 mM; MgCl2, 5 mM; CaCl2 1 mM; BSA, 0.2% at pH 7.4) and washing buffer (Tris-HCl, 50 mM; NaCl 500 mM; BSA, 0.1% at pH 7.4). […] Assays were performed in duplicate and incubated for […] at 37° C. After the incubation, the assay mixture is filtered through 96 GF/C filter plates (Perkin Elmer #6005174) using Perkin Elmer Filtermate Harvester, and then washed four times with ice-cold washing buffer. The filters are dried for 1 hour at 50° C. and [^3H] trapped on filter counted for radioactivity in Perkin Elmer Microscint 20 cocktail (#6013329) using Perkin Elmer MicroBeta2 Reader. […] Data are analyzed and IC50 is calculated using GraphPad Prism 5 and the model “log(inhibitor) vs. response—Variable slope”. The binding affinity of the compounds is Determined by Using the Cheng and Prusoff Equation Ki=IC50/(1+[radioligand]/Kd).

[1] = membranes of HEK-293 cells with human recombinant CB2R, [3H]CP-55,940, class symbols, read-out: CB2 IC50
[2] = membranes of HEK-293 cells with human recombinant CB2R, [3H]CP-55,940, read-out: CB2 IC50

human recombinant CB1R, sequence (P21554 whole entry): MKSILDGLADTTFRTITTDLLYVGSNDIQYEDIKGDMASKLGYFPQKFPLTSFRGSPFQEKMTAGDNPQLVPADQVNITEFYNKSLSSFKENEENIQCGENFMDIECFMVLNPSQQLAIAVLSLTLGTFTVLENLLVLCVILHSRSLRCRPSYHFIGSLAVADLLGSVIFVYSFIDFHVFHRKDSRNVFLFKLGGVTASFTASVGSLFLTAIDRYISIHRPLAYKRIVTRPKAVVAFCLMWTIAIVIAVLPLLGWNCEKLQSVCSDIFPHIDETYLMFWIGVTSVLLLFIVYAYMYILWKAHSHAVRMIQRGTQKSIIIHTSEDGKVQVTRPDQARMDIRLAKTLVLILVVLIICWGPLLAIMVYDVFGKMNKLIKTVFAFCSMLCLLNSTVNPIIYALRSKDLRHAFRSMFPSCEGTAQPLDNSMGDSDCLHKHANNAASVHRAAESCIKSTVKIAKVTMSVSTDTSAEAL
human CB2 receptor, sequence (P34972 whole entry): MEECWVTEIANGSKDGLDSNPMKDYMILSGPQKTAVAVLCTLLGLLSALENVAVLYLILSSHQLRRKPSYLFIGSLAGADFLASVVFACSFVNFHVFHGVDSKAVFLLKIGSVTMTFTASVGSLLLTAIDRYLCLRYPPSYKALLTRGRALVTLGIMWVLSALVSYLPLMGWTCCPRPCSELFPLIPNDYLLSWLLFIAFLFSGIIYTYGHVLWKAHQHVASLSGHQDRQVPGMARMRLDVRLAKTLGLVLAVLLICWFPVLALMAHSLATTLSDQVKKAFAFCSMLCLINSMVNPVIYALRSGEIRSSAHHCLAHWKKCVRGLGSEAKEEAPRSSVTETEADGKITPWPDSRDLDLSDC

Compound | IC50 (human CB2 receptor; [1]) [nM] | IC50 (human recombinant CB1R; class symbols) [nM] | IC50 (human CB2 receptor) [nM] | IC50 (human CB2 receptor; [2]) [nM] | IC50 (human recombinant CB1R) [nM]
CC(NC(=O)c1cc2cc(Br)cnc2n(Cc2ncccn2)c1=O)c1ccc(F)cc1 (stereo not drawn) [Compound 64, 6-bromo-N-(1-(4-fluorophenyl)ethyl)-2-oxo-1-(pyrimidin-2-ylmethyl)-1,2-dihydro-1,8-naphthyridine-3-carboxamide] | > 1000 | > 1000 | – | – | –
CC(NC(=O)c1cc2cc(-c3ccc(F)cc3)cnc2n(Cc2ncccn2)c1=O)c1ccc(F)cc1 (stereo not drawn) [Compound 65, 6-(4-fluorophenyl)-N-(1-(4-fluorophenyl)ethyl)-2-oxo-1-(pyrimidin-2-ylmethyl)-1,2-dihydro-1,8-naphthyridine-3-carboxamide] | – | > 1000 | 100 to 999 | – | –
CC(C)Oc1ccc(-c2cnc3c(c2)cc(C(=O)NC2CC4(CCC4)C2)c(=O)n3Cc2ccc(F)cc2)cc1 [Compound 66, 6-(4-isopropoxyphenyl)-1-(4-fluorobenzyl)-2-oxo-N-(spiro[3.3]heptan-2-yl)-1,2-dihydro-1,8-naphthyridine-3-carboxamide] | > 1000 | > 1000 | – | – | –
O=C(NC1CC2(CCC2)C1)c1cc2cc(-c3ccc(OC4CC4)cc3)cnc2n(Cc2ccc(F)cc2)c1=O [Compound 67, 6-(4-cyclopropoxyphenyl)-1-(4-fluorobenzyl)-2-oxo-N-(spiro[3.3]heptan-2-yl)-1,2-dihydro-1,8-naphthyridine-3-carboxamide] | > 1000 | > 1000 | – | – | –
CS(=O)(=O)c1ccc(-c2cnc3c(c2)cc(C(=O)NC2CC4(CCC4)C2)c(=O)n3Cc2ccc(F)cc2)cc1 [Compound 68, 1-(4-fluorobenzyl)-6-(4-(methylsulfonyl)phenyl)-2-oxo-N-(spiro[3.3]heptan-2-yl)-1,2-dihydro-1,8-naphthyridine-3-carboxamide] | – | > 1000 | 100 to 999 | – | –
O=C(Nc1ccccn1)c1cc2cc(Br)cnc2n(Cc2ccc(F)cc2)c1=O [Compound 70, 6-bromo-1-(4-fluorobenzyl)-2-oxo-N-(pyridin-2-yl)-1,2-dihydro-1,8-naphthyridine-3-carboxamide] | < 100 | > 1000 | – | – | –
Cc1ccc(NC(=O)c2cc3cc(Br)cnc3n(Cc3ccc(F)cc3)c2=O)cc1 [Compound 71, 6-bromo-1-(4-fluorobenzyl)-2-oxo-N-(p-tolyl)-1,2-dihydro-1,8-naphthyridine-3-carboxamide] | > 1000 | > 1000 | – | – | –
Cc1c(C(=O)NC2CCC(C)CC2)c(=O)n(CCN2CCOCC2)c2ncc(Br)cc12 (stereo not drawn) [Compound 72, 6-bromo-4-methyl-N-(4-methylcyclohexyl)-1-(2-morpholinoethyl)-2-oxo-1,2-dihydro-1,8-naphthyridine-3-carboxamide] | < 100 | > 1000 | – | – | –
COc1ccc(-c2cnc3c(c2)c(C)c(C(=O)NC2CCC(C)CC2)c(=O)n3CCN2CCOCC2)cc1 (stereo not drawn) [Compound 73, 6-(4-methoxyphenyl)-4-methyl-N-(4-methylcyclohexyl)-1-(2-morpholinoethyl)-2-oxo-1,2-dihydro-1,8-naphthyridine-3-carboxamide] | – | > 1000 | 100 to 999 | – | –
COc1ccc(-c2cnc3c(c2)c(C)c(C(=O)NC2CC4(CCC4)C2)c(=O)n3CCN2CCOCC2)cc1 [Compound 74, 6-(4-methoxyphenyl)-4-methyl-1-(2-morpholinoethyl)-2-oxo-N-(spiro[3.3]heptan-2-yl)-1,2-dihydro-1,8-naphthyridine-3-carboxamide] | > 1000 | > 1000 | – | – | –
COc1ccc(-c2cnc3c(c2)c(C)c(C(=O)NC(C)c2ccc(F)cc2)c(=O)n3CCN2CCOCC2)cc1 (stereo not drawn) [Compound 75, N-(1-(4-fluorophenyl)ethyl)-6-(4-methoxyphenyl)-4-methyl-1-(2-morpholinoethyl)-2-oxo-1,2-dihydro-1,8-naphthyridine-3-carboxamide] | > 1000 | > 1000 | – | – | –
Cc1c(C(=O)NC2CC3(CCC3)C2)c(=O)n(Cc2ccc(F)cc2)c2ncc(Br)cc12 [Compound 76, 6-bromo-1-(4-fluorobenzyl)-4-methyl-2-oxo-N-(spiro[3.3]heptan-2-yl)-1,2-dihydro-1,8-naphthyridine-3-carboxamide] | < 100 | > 1000 | – | – | –
Cc1c(C(=O)NC2CC3(CCC3)C2)c(=O)n(Cc2ccc(C#N)cc2)c2ncc(Br)cc12 [Compound 77, 6-bromo-1-(4-cyanobenzyl)-4-methyl-2-oxo-N-(spiro[3.3]heptan-2-yl)-1,2-dihydro-1,8-naphthyridine-3-carboxamide] | – | > 1000 | 100 to 999 | – | –
Cc1c(C(=O)NC2CC3(CCC3)C2)c(=O)n(Cc2cccc(C#N)c2)c2ncc(Br)cc12 [Compound 78, 6-bromo-1-(3-cyanobenzyl)-4-methyl-2-oxo-N-(spiro[3.3]heptan-2-yl)-1,2-dihydro-1,8-naphthyridine-3-carboxamide] | – | > 1000 | 100 to 999 | – | –
COc1ccc(-c2cnc3c(c2)c(C)c(C(=O)NC2CCC(C)CC2)c(=O)n3Cc2ccc(F)cc2)cc1 (stereo not drawn) [Compound 80, 1-(4-fluorobenzyl)-6-(4-methoxyphenyl)-4-methyl-N-(4-methylcyclohexyl)-2-oxo-1,2-dihydro-1,8-naphthyridine-3-carboxamide] | – | > 1000 | 100 to 999 | – | –
O=C(NC1CC2(CCC2)C1)c1cc2cc(Br)cnc2n(Cc2ccc(F)cc2)c1=O [Compound 81, 6-bromo-1-(4-fluorobenzyl)-2-oxo-N-(spiro[3.3]heptan-2-yl)-1,2-dihydro-1,8-naphthyridine-3-carboxamide] | – | – | – | 5 | > 10000
CC(C)c1cnc2c(c1)cc(C(=O)NC13CC(C1)C3)c(=O)n2Cc1ccc(F)cc1 [Compound 84, N-(bicyclo[1.1.1]pentan-1-yl)-1-(4-fluorobenzyl)-6-isopropyl-2-oxo-1,2-dihydro-1,8-naphthyridine-3-carboxamide] | – | – | – | 3.7 | 413
CC(C)c1cnc2c(c1)cc(C(=O)NC1(c3ccc(C#N)cc3)CC1)c(=O)n2Cc1ccc(F)cc1 [Compound 86, N-(1-(4-cyanophenyl)cyclopropyl)-1-(4-fluorobenzyl)-6-isopropyl-2-oxo-1,2-dihydro-1,8-naphthyridine-3-carboxamide] | < 100 | > 1000 | – | – | –
C[C@@H](NC(=O)c1cc2cc(Br)cnc2n(Cc2ccc(F)cc2)c1=O)c1ccc(F)cc1 [Compound 87, (R)-6-bromo-1-(4-fluorobenzyl)-N-(1-(4-fluorophenyl)ethyl)-2-oxo-1,2-dihydro-1,8-naphthyridine-3-carboxamide] | – | – | – | 5 | 4580
C=C(C)c1cnc2c(c1)cc(C(=O)N[C@H](C)c1ccc(F)cc1)c(=O)n2Cc1ccc(F)cc1 [Compound 88, (R)-1-(4-fluorobenzyl)-N-(1-(4-fluorophenyl)ethyl)-2-oxo-6-(prop-1-en-2-yl)-1,2-dihydro-1,8-naphthyridine-3-carboxamide] | – | – | – | 6.7 | > 10000
C[C@H](NC(=O)c1cc2cc(Br)cnc2n(Cc2ccc(F)cc2)c1=O)c1ccc(F)cc1 [Compound 90, (S)-6-bromo-1-(4-fluorobenzyl)-N-(1-(4-fluorophenyl)ethyl)-2-oxo-1,2-dihydro-1,8-naphthyridine-3-carboxamide] | – | – | – | 11 | 348
C[C@@H](NC(=O)c1cc2cc(Br)cnc2n(Cc2ccc(F)cc2)c1=O)c1ccc(C#N)cc1 [Compound 91, (R)-6-bromo-N-(1-(4-cyanophenyl)ethyl)-1-(4-fluorobenzyl)-2-oxo-1,2-dihydro-1,8-naphthyridine-3-carboxamide] | – | – | – | 7 | > 10000
O=C(NC1CC2(CCC2)C1)c1cc2cc(C3CC3)cnc2n(Cc2ccc(F)cc2)c1=O [Compound 93, 6-cyclopropyl-1-(4-fluorobenzyl)-2-oxo-N-(spiro[3.3]heptan-2-yl)-1,2-dihydro-1,8-naphthyridine-3-carboxamide] | – | – | – | 3.6 | > 10000
O=C(NC1CC2(CCC2)C1)c1cc2cc(Br)cnc2n(Cc2cccnc2)c1=O [Compound 96, 6-bromo-2-oxo-1-(pyridin-3-ylmethyl)-N-(spiro[3.3]heptan-2-yl)-1,2-dihydro-1,8-naphthyridine-3-carboxamide] | < 100 | > 1000 | – | – | –

From US11564928B1, “Cannabinoid receptor type 2 (CB2) modulators and uses thereof” (Teon Therapeutics, Inc., priority 2020, dated 2023)
